Broadly, the DC50 is the concentration giving 50% degradation.

Data on 11 compounds can be found in patent US20250340561A1, “QUINAZOLINE COMPOUND FOR INDUCING DEGRADATION OF G12D MUTANT KRAS PROTEIN” (Astellas Pharma Inc., priority 2021, published 2025).

In the assay the target is T1, KRAS G12D (Homo sapiens, UniProt P01116, G12D).
T1 construct: host or cells: AsPC-1 human pancreatic cancer cells
T1 sequence (P01116 1-188 isoform P01116-2 G12D): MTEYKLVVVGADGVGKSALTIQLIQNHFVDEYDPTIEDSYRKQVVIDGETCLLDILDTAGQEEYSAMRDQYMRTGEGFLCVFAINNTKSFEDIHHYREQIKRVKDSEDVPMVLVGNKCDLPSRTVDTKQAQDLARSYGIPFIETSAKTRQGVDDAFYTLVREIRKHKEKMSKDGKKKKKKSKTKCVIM
The experiment in a line: Test Example 1-1: KRAS degradation action in AsPC-1, sandwich ELISA. The class given is cell-based. To be noted: AsPC-1 cells, 24 hours treatment, corrected with β-actin, 0% = 10 μM Example No. 7. As to the method:
Test Example 1-1: Evaluation of KRAS Degradation Action on Human G12D Mutant KRAS-Positive Pancreatic Cancer Line AsPC-1
The KRAS degradation action of test compounds was evaluated by measuring the expression levels of KRAS G12D by a sandwich ELISA method.
AsPC-1 cells (ATCC, CRL-1682) were seeded at 90 μL per well on a 96-well plate (from IWAKI) to give 1.8×10^4 cells per well. As for the cell culture conditions, RPMI 1640 medium (from Merck) containing 10% fetal bovine serum (from Cytiva) was used in the presence of 5% CO2 at 37° C.
The next day, the test compounds (10 points having final concentrations in the range of 10 μM to 0.3 nM) were diluted 100-fold with a fresh medium and were added at 10 μL per well. The same treatments were each applied to 4 wells. In addition, in production of the sandwich ELISA plate, a capture antibody (anti-KRAS antibody, from LS Bio) mixed in Phosphate Buffered Saline [PBS; from FUJIFILM Wako Pure Chemical Corporation] in 1,000-fold dilution was added at 20 μL per well to a Maxisorp 384-well plate (from Thermo Scientific), and after attaching a seal, the plate was allowed to stand at 4° C. overnight.
After 24 hours of the test compound treatment, the culture supernatant was discarded. Immediately, a cytolytic solution (produced by adding, to a RIPA buffer [from Thermo Scientific], a Halt Protease Phosphatese Inhibitor Cocktail [from Thermo Scientific] and Benzonase Nuclease [from Merck] in amounts of 1/100 and 1/500, respectively) was added at 50 μL per well, and the cells were lysed. Then, equally treated 4 wells were combined to prepare a cell lysate sample of 200 μL in total. For KRAS detection, the Maxisorp 384-well plate which had been treated with the capture antibody since the previous day was washed (twice with 25 μL each) with 0.05% Tween-20-containing PBS (from Thermo Scientific; 20×PBS Tween-20 was diluted 20-fold with ion exchange water and used) and was treated with a blocking solution (Intercept Blocking Buffer; from LI-COR Biosciences) for 60 minutes, and then, the cell lysate samples were added at 20 μL per well. For 3-actin detection, the cell lysate samples were added as they were at 20 μL per well to the Maxisorp 384-well plate, and after attaching a seal, the plate was allowed to stand at 4° C. overnight.
The next day, after washing the KRAS detection plate with 0.05% Tween-20-containing PBS, an anti-Ras (G12D mutant specific) antibody (from Cell Signaling Technology) diluted 1,000-fold with a blocking solution was added at 20 μL per well as a detection antibody, and the plate was allowed to stand for 5 hours at room temperature. Then, the plate was centrifuged to remove the supernatant (using a centrifugal dehydrator machine, the supernatant was removed by the same method hereinafter) and was washed with 0.05% Tween-20-containing PBS. Then, an anti-Rabbit IgG […] antibody (from Cell Signaling Technology) diluted 1,000-fold with a blocking solution was added at 20 μL per well as a secondary antibody, and the plate was allowed to stand for 1 hour at room temperature. The plate was centrifuged to remove the supernatant and was washed with 0.05% Tween-20-containing PBS. Then, a BM chemiluminescent ELISA substrate (from Merck) was added at 20 μL per well, and the amounts of luminescence were measured with 2103 EnVision (from PerkinElmer). In addition, the 3-actin detection plate was washed with 0.05% Tween-20-containing PBS and was treated with a blocking solution for 60 minutes, and then, an anti-β-actin antibody (from Abcam) diluted 1,000-fold with a blocking solution was added at 20 μL per well as a detection antibody. The plate was allowed to stand for 5 hours at room temperature. Then, the plate was centrifuged to remove the supernatant and washed with 0.05% Tween-20-containing PBS, and then, an anti-Mouse IgG RP-linked antibody (from Cell Signaling Technology) diluted 1,000-fold with a blocking solution was added at 20 μL per well as a secondary antibody. […]
(An ELISA detects its analyte on a solid surface through an enzyme-linked reagent.)
With `Cc1ncsc1-c1ccc([C@H](CO)NC(=O)[C@@H]2C[C@@H](O)CN2C(=O)[C@H](C(C)C)n2cc(-c3ccc(COc4c(-c5c(C)c(F)cc6[nH]ncc56)c(C5CC5)cc5c(N6C[C@@H]7C[C@H]6CN7)nc(O[C@H]6CCOC6)nc45)cc3)nn2)cc1` [Example 29], the half-maximal degradation concentration (DC50) is 33 nM.

`CCc1ccncc1Oc1nc(N2C[C@@H]3C[C@H]2CN3)c2cc(C3CC3)c(-c3c(C)c(F)cc4[nH]ncc34)c(OCc3ccc(-c4cn([C@H](C(=O)N5C[C@H](O)C[C@H]5C(=O)N[C@@H](CO)c5ccc(-c6scnc6C)cc5)C(C)C)nn4)cc3)c2n1` [Example 25]: the DC50 was 44 nM.

Consider `Cc1ncsc1-c1ccc([C@H](CO)NC(=O)[C@@H]2C[C@@H](O)CN2C(=O)[C@H](C(C)C)N2Cc3cc(COc4c(-c5c(C)c(F)cc6[nH]ncc56)c(C5CC5)cc5c(N6C[C@@H]7C[C@H]6CN7)nc(OC6CCOCC6)nc45)ccc3C2=O)cc1` [Example 4], for which half-maximal degradation (DC50) was put at 897 nM.

Turning to `Cc1ncsc1-c1ccc([C@H](CO)NC(=O)[C@@H]2C[C@@H](O)CN2C(=O)[C@H](C(C)C)n2cc(-c3ccc(COc4c(-c5c(C)c(F)cc6[nH]ncc56)c(C5CC5)cc5c(N6C[C@@H]7C[C@H]6CN7)nc(OC6COC6)nc45)cc3)nn2)cc1` [Example 27], half-maximal degradation (DC50) was put at 55 nM.

For the compound `Cc1ncsc1-c1ccc([C@H](CO)NC(=O)[C@@H]2C[C@@H](O)CN2C(=O)[C@H](C(C)C)n2cc(-c3ccc(COc4c(-c5c(C)c(F)cc6[nH]ncc56)c(C5CC5)cc5c(N6C[C@@H]7C[C@H]6CN7)nc(O[C@@H]6CCOC6)nc45)cc3)nn2)cc1` [Example 28], the half-maximal degradation concentration (DC50) was 45 nM.

Turning to `Cc1c(F)cc2[nH]ncc2c1-c1c(C2CC2)cc2c(N3C[C@@H]4C[C@H]3CN4)nc(OC3CCOCC3)nc2c1OCc1ccc(-c2cn([C@H](C(=O)N3C[C@H](O)C[C@H]3C(=O)N[C@@H](CO)c3ccc(Br)cc3)C(C)C)nn2)cc1` [Example 12], the half-maximal degradation concentration (DC50) stood at 136 nM.

`Cc1c(F)cc2[nH]ncc2c1-c1c(C2CC2)cc2c(N3C[C@@H]4C[C@H]3CN4)nc(OC3CCOCC3)nc2c1OCc1ccc(-c2cn([C@H](C(=O)N3C[C@H](O)C[C@H]3C(=O)N[C@@H](CO)c3ccc(N4CCOC4=O)cc3)C(C)C)nn2)cc1` [Example 20, (4R)-1-[(2S)-2-(4-{4-[({6-cyclopropyl-4-[(1S,4S)-2,5-diazabicyclo[2.2.1]heptan-2-yl]-7-(6-fluoro-5-methyl-1H-indazol-4-yl)-2-[(oxan-4-yl)oxy]quinazolin-8-yl}oxy)methyl]phenyl}-1H-1,2,3-triazol-1-yl)-3-methylbutanoyl]-4-hydroxy-N-{(1R)-2-hydroxy-1-[4-(2-oxo-1,3-oxazolidin-3-yl)phenyl]ethyl}-L-prolinamide]: the DC50 stood at 100 nM.

As for `Cc1ncsc1-c1ccc(C2(NC(=O)[C@@H]3C[C@@H](O)CN3C(=O)[C@@H](NC(=O)c3ccc(COc4c(-c5c(C)c(F)cc6[nH]ncc56)c(C5CC5)cc5c(N6C[C@@H]7C[C@H]6CN7)nc(OC6CCOCC6)nc45)cc3)C(C)C)CC2)cc1` [Example 1], the half-maximal degradation concentration (DC50) worked out at 123 nM.

Take `Cc1ncsc1-c1ccc([C@H](CO)NC(=O)[C@@H]2C[C@@H](O)CN2C(=O)[C@H](C(C)C)n2cc(-c3ccc(COc4c(-c5c(C)c(F)cc6[nH]ncc56)c(C5CC5)cc5c(N6C[C@@H]7C[C@H]6CN7)nc(OC6CCN(C7COC7)CC6)nc45)cc3)nn2)cc1` [Example 24]: the DC50 was 103 nM.

Regarding `Cc1ncsc1-c1ccc([C@H](CO)NC(=O)[C@@H]2C[C@@H](O)CN2C(=O)[C@H](C(C)C)n2cc(-c3ccc(COc4c(-c5cc(O)cc(F)c5C)c(C5CC5)cc5c(N6C[C@@H]7C[C@H]6CN7)nc(OC6CCOCC6)nc45)cc3)nn2)cc1` [Example 15], half-maximal degradation (DC50) was put at 95 nM.

In turn, `Cc1ncsc1-c1ccc([C@H](C)NC(=O)[C@@H]2C[C@@H](O)CN2C(=O)[C@H](C(C)C)n2cc(-c3ccc(COc4c(-c5c(C)c(F)cc6[nH]ncc56)c(C5CC5)cc5c(N6C[C@@H]7C[C@H]6CN7)nc(OC6CCOCC6)nc45)cc3)nn2)cc1` [Example 9] yielded a DC50 of 77 nM.
